Data as given in paper PMC11476017, “A Lincomycin-Specific Antibody Was Developed Using Hapten Prediction, and an Immunoassay Was Established to Detect Lincomycin in Pork and Milk” (Foods, 2024).

Test system: T1, monoclonal antibody 1B11 (LIN/1B11)
T1 construct: whole monoclonal antibody, IgG1
Assay: indirect competitive ELISA with LIN-NaIO4-OVA coating antigen
Format: binding

CCC[C@@H]1C[C@@H](C(=O)N[C@@H]([C@H]2O[C@H](SC)[C@H](O)[C@@H](O)[C@H]2O)[C@@H](C)O)N(C)C1 [LIN, lincomycin]
IC50: 0.57 ± 0.03 µg/kg
